# Reference: ChEMBL document CHEMBL1145534 (2007)
# What was measured:
# Type in all cases: functional
# Enterococcus raffinosus [1] = test: Antimicrobial activity against Enterococcus raffinosus at 0.5 ug/ml by broth microdilution method
# Streptococcus mitis [2] = test: Antimicrobial activity against viridans group Streptococcus mitis at <= 0.06 ug/ml by broth microdilution method
# [3] = test system: Streptococcus parasanguinis; test: Antimicrobial activity against viridans group Streptococcus parasanguis at <= 0.06 ug/ml by broth microdilution method
# Bacillus cereus [4] = test: Antimicrobial activity against Bacillus cereus at 2 ug/ml by broth microdilution method
# [5] = test system: Streptococcus parasanguinis; test: Antimicrobial activity against viridans group Streptococcus parasanguis at 0.12 ug/ml by broth microdilution method
# Listeria monocytogenes [6] = test: Antimicrobial activity against Listeria monocytogenes at 0.12 ug/ml by broth microdilution method
# Corynebacterium jeikeium [7] = test: Antimicrobial activity against Corynebacterium jeikeium at 1 ug/ml by broth microdilution method
# [8] = test system: Streptococcus intermedius; test: Antimicrobial activity against viridans group Streptococcus intermedius at 0.5 ug/ml by broth microdilution method
# [9] = test system: Streptococcus intermedius; test: Antimicrobial activity against viridans group Streptococcus intermedius at 0.12 ug/ml by broth microdilution method
# Enterococcus avium = test: Antimicrobial activity against Enterococcus avium at 4 ug/ml by broth microdilution method
# Streptococcus anginosus [10] = test: Antimicrobial activity against viridans group Streptococcus anginosus at <= 0.06 ug/ml by broth microdilution method
# [11] = test system: Streptococcus parasanguinis; test: Antimicrobial activity against viridans group Streptococcus parasanguis at 0.5 ug/ml by broth microdilution method
# Streptococcus mitis [12] = test: Antimicrobial activity against viridans group Streptococcus mitis at 0.25 ug/ml by broth microdilution method
# Corynebacterium striatum [13] = test: Antimicrobial activity against Corynebacterium striatum at <= 0.06 ug/ml by broth microdilution method
# Enterococcus raffinosus [14] = test: Antimicrobial activity against Enterococcus raffinosus at 2 ug/ml by broth microdilution method
# Streptococcus mitis [15] = test: Antimicrobial activity against viridans group Streptococcus mitis at 0.12 ug/ml by broth microdilution method
# Streptococcus [16] = test: Antimicrobial activity against beta hemolytic Streptococci group G at 0.25 ug/ml by broth microdilution method
# [17] = test system: Streptococcus parasanguinis; test: Antimicrobial activity against viridans group Streptococcus parasanguis by broth microdilution method
# Streptococcus [18] = test: Antimicrobial activity against beta hemolytic Streptococcus group C at <= 0.06 ug/ml by broth microdilution method
# [19] = test system: Corynebacterium amycolatum; test: Antimicrobial activity against Corynebacterium amycolatum at 0.12 ug/ml by broth microdilution method
# Enterococcus raffinosus [20] = test: Antimicrobial activity against Enterococcus raffinosus at 1 ug/ml by broth microdilution method
# Streptococcus sanguinis [21] = test: Antimicrobial activity against viridans group Streptococcus sanguinis at 0.5 ug/ml by broth microdilution method
# [22] = test system: Corynebacterium pseudodiphtheriticum; test: Antimicrobial activity against Corynebacterium pseudodiphtheriticum at 0.25 ug/ml by broth microdilution method
# Corynebacterium jeikeium [23] = test: Antimicrobial activity against Corynebacterium jeikeium by broth microdilution method
# Streptococcus oralis = test: Antimicrobial activity against viridans group Streptococcus oralis at <= 0.06 ug/ml by broth microdilution method
# Micrococcus luteus = test: Antimicrobial activity against Micrococcus luteus at <= 0.06 ug/ml by broth microdilution method
# Listeria monocytogenes [24] = test: Antimicrobial activity against Listeria monocytogenes by broth microdilution method
# Enterococcus raffinosus [25] = test: Antimicrobial activity against Enterococcus raffinosus at 0.12 ug/ml by broth microdilution method
# Streptococcus mutans [26] = test: Antimicrobial activity against viridans group Streptococcus mutans at <= 0.06 ug/ml by broth microdilution method
# Bacillus cereus [27] = test: Antimicrobial activity against Bacillus cereus at 0.25 ug/ml by broth microdilution method
# [28] = test system: Streptococcus intermedius; test: Antimicrobial activity against viridans group Streptococcus intermedius at 1 ug/ml by broth microdilution method
# [29] = test system: Corynebacterium pseudodiphtheriticum; test: Antimicrobial activity against Corynebacterium pseudodiphtheriticum at 0.5 ug/ml by broth microdilution method
# Enterococcus raffinosus [30] = test: Antimicrobial activity against Enterococcus raffinosus by broth microdilution method
# Streptococcus mutans [31] = test: Antimicrobial activity against viridans group Streptococcus mutans at 0.25 ug/ml by broth microdilution method
# Corynebacterium striatum [32] = test: Antimicrobial activity against Corynebacterium striatum by broth microdilution method
# [33] = test system: Corynebacterium pseudodiphtheriticum; test: Antimicrobial activity against Corynebacterium pseudodiphtheriticum at <= 0.06 ug/ml by broth microdilution method
# [34] = test system: Streptococcus parasanguinis; test: Antimicrobial activity against viridans group Streptococcus parasanguis at 0.25 ug/ml by broth microdilution method
# Corynebacterium sp. = test: Antimicrobial activity against Corynebacterium spp. at 1 ug/ml by broth microdilution method
# Enterococcus durans [35] = test: Antimicrobial activity against Enterococcus durans at <= 0.06 ug/ml by broth microdilution method
# Streptococcus [36] = test: Antimicrobial activity against beta hemolytic Streptococcus group C at 0.12 ug/ml by broth microdilution method
# [37] = test system: Streptococcus vestibularis; test: Antimicrobial activity against viridans group Streptococcus vestibularis at 0.12 ug/ml by broth microdilution method
# Streptococcus equinus = test: Antimicrobial activity against viridans group Streptococcus bovis at <= 0.06 ug/ml by broth microdilution method
# Streptococcus anginosus [38] = test: Antimicrobial activity against viridans group Streptococcus anginosus at 0.25 ug/ml by broth microdilution method
# Streptococcus salivarius [39] = test: Antimicrobial activity against viridans group Streptococcus salivarius at <= 0.06 ug/ml by broth microdilution method
# Streptococcus salivarius [40] = test: Antimicrobial activity against viridans group Streptococcus salivarius at 0.12 ug/ml by broth microdilution method
# Streptococcus anginosus [41] = test: Antimicrobial activity against viridans group Streptococcus anginosus at 0.12 ug/ml by broth microdilution method
# Streptococcus [42] = test: Antimicrobial activity against beta hemolytic Streptococci group G at <= 0.06 ug/ml by broth microdilution method
# Enterococcus hirae = test: Antimicrobial activity against Enterococcus hirae by broth microdilution method
# [43] = test system: Streptococcus constellatus; test: Antimicrobial activity against viridans group Streptococcus constellatus at 1 ug/ml by broth microdilution method
# [44] = test system: Corynebacterium amycolatum; test: Antimicrobial activity against Corynebacterium amycolatum by broth microdilution method
# Streptococcus gordonii = test: Antimicrobial activity against viridans group Streptococcus gordonii at 0.25 ug/ml by broth microdilution method
# Streptococcus mutans [45] = test: Antimicrobial activity against viridans group Streptococcus mutans at 0.12 ug/ml by broth microdilution method
# Enterococcus gallinarum = test: Antimicrobial activity against Enterococcus gallinarum at 2 ug/ml by broth microdilution method
# Streptococcus sanguinis [46] = test: Antimicrobial activity against viridans group Streptococcus sanguinis at 0.25 ug/ml by broth microdilution method
# Enterococcus durans [47] = test: Antimicrobial activity against Enterococcus durans at 0.12 ug/ml by broth microdilution method
smiles,measurement,setting,value
CC(=O)NC[C@H]1CN(c2ccc(N3CCOCC3)c(F)c2)C(=O)O1 [LINEZOLID],inhibition at 0.5 µg/mL,Enterococcus raffinosus [1],0%
same,Inhibition,Streptococcus mitis [2],0.3%
same,Inhibition,[3],0%
same,inhibition at 2 µg/mL,Bacillus cereus [4],100%
same,inhibition at 0.12 µg/mL,[5],0%
same,inhibition at 0.12 µg/mL,Listeria monocytogenes [6],0%
same,inhibition at 1 µg/mL,Corynebacterium jeikeium [7],100%
same,inhibition at 0.5 µg/mL,[8],24.2%
same,inhibition at 0.12 µg/mL,[9],0%
same,inhibition at 4 µg/mL,Enterococcus avium,100%
same,Inhibition,Streptococcus anginosus [10],2.9%
same,inhibition at 0.5 µg/mL,[11],57.1%
same,inhibition at 0.25 µg/mL,Streptococcus mitis [12],4.4%
same,Inhibition,Corynebacterium striatum [13],0%
same,inhibition at 2 µg/mL,Enterococcus raffinosus [14],100%
same,inhibition at 0.12 µg/mL,Streptococcus mitis [15],1.2%
same,inhibition at 0.25 µg/mL,Streptococcus [16],0.8%
same,MIC50,[17],0.5 µg/mL
same,MIC90,[17],1 µg/mL
same,Inhibition,Streptococcus [18],1.5%
same,inhibition at 0.12 µg/mL,[19],27.3%
same,inhibition at 1 µg/mL,Enterococcus raffinosus [20],46.2%
same,inhibition at 0.5 µg/mL,Streptococcus sanguinis [21],36.6%
same,inhibition at 0.25 µg/mL,[22],36.4%
same,MIC50,Corynebacterium jeikeium [23],0.25 µg/mL
same,MIC90,Corynebacterium jeikeium [23],0.5 µg/mL
same,Inhibition,Streptococcus oralis,0.7%
same,Inhibition,Micrococcus luteus,0%
same,MIC50,Listeria monocytogenes [24],2 µg/mL
same,MIC90,Listeria monocytogenes [24],2 µg/mL
same,inhibition at 0.12 µg/mL,Enterococcus raffinosus [25],0%
same,Inhibition,Streptococcus mutans [26],0%
same,inhibition at 0.25 µg/mL,Bacillus cereus [27],3.3%
same,inhibition at 1 µg/mL,[28],87.9%
same,inhibition at 0.5 µg/mL,[29],90.9%
same,MIC50,Enterococcus raffinosus [30],2 µg/mL
same,MIC90,Enterococcus raffinosus [30],2 µg/mL
same,inhibition at 0.25 µg/mL,Streptococcus mutans [31],0%
same,MIC50,Corynebacterium striatum [32],0.25 µg/mL
same,MIC90,Corynebacterium striatum [32],0.5 µg/mL
same,Inhibition,[33],0%
same,inhibition at 0.25 µg/mL,[34],0%
same,inhibition at 1 µg/mL,Corynebacterium sp.,99.6%
same,Inhibition,Enterococcus durans [35],0%
same,inhibition at 0.12 µg/mL,Streptococcus [36],3%
same,inhibition at 0.12 µg/mL,[37],0%
same,Inhibition,Streptococcus equinus,0%
same,inhibition at 0.25 µg/mL,Streptococcus anginosus [38],7.7%
same,Inhibition,Streptococcus salivarius [39],0%
same,inhibition at 0.12 µg/mL,Streptococcus salivarius [40],1.1%
same,inhibition at 0.12 µg/mL,Streptococcus anginosus [41],2.9%
same,Inhibition,Streptococcus [42],0.5%
same,MIC50,Enterococcus hirae,2 µg/mL
same,MIC90,Enterococcus hirae,2 µg/mL
same,inhibition at 1 µg/mL,[43],98.9%
same,MIC50,[44],0.25 µg/mL
same,MIC90,[44],0.25 µg/mL
same,inhibition at 0.25 µg/mL,Streptococcus gordonii,0%
same,inhibition at 0.12 µg/mL,Streptococcus mutans [45],0%
same,inhibition at 2 µg/mL,Enterococcus gallinarum,99.2%
same,inhibition at 0.25 µg/mL,Streptococcus sanguinis [46],4.2%
same,inhibition at 0.12 µg/mL,Enterococcus durans [47],0%
